In test [1] the target is human Adenosine A2a receptor (Homo sapiens (Human), UniProt P29274). Description: Adenosine receptor TR-FRET binding assay (A2a). The settings on record: inhibition of binding of 100 nM CA200645, CHO cell membranes. The essentials:
(§1)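 Terbium-labelled human receptors in CHO cell membranes were incubated 2 h at room temperature with test compounds and fluorescent XAC tracer CA200645 (30 nM for A2b; 100 nM for A1, A2a, A3). TR-FRET 665/620 nm ratio gave specific binding; Ki derived from IC50 by Cheng–Prusoff.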
In general terms: Time-resolved FRET reads energy transfer from a long-lived donor to a nearby acceptor.

For test [2], the system named is CD8+T cells in human whole blood. Nature of the test: Measurement of pCREB in CD8+T cells in human whole blood. The settings on record: 3 μM NECA, rolipram. The test is classed as cell-based. The gist of the method: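 Heparinised human whole blood pre-incubated 20 min at 37 °C with serially diluted A2a antagonists plus rolipram, then stimulated 60 min with 3 μM NECA (final). After fixation and red-cell lysis, white cells were permeabilized and stained for phospho-CREB and CD8; pCREB in CD8+ T cells measured by flow cytometry.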

Test [3] concerns the target human Adenosine A1 receptor (Homo sapiens (Human), UniProt P30542). Description: Adenosine receptor TR-FRET binding assay (A1). The settings on record: inhibition of binding of 100 nM CA200645, CHO cell membranes. The essentials: as §1
Test [4] concerns the target human Adenosine A2b receptor (Homo sapiens (Human), UniProt P29275). Description: Adenosine receptor TR-FRET binding assay (A2b). The settings on record: TR-FRET, inhibition of binding of 30 nM CA200645, CHO cell membranes. The essentials: as §1
The next test has as its system human PBMCs. Description: CD3/CD28 stimulated IL-2 release NECA reversal assay in human PBMCs. The settings on record: PBMC, 1 uM NECA, 24 hours, IL-2 in culture supernatant. The test is classed as cell-based. The gist of the method:
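PBMCs from citrated healthy-donor blood plated at 50,000 cells/well on 1 ug/ml CD3 antibody with 1 ug/ml CD28 antibody, 1 uM NECA and 0.003-10 μM antagonist (final), 24 h at 37° C. Supernatant IL-2 measured by MSD immunoassay; % inhibition set against no-NECA control wells as 100%.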

Test [5] has as its system immature monocyte-derived dendritic cells (MoDC). Description: MoDC pCREB assay. The settings on record: Homo sapiens, Dendritic cell; pCREB in immature MoDC, 1 μM NECA, rolipram. The test is classed as cell-based, human. The gist of the method: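 Human CD14+ monocytes differentiated 5 days into immature MoDC, pre-incubated 15 min at 37 °C with antagonist plus rolipram, then stimulated with 1 μM NECA for 45 min at 37 °C. Phospho-CREB measured by flow cytometry in gated CD209+/CD86− low cells; IC50 from the inflection point of a sigmoidal curve.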

Test [6] concerns the target human Adenosine A3 receptor (Homo sapiens (Human), UniProt P0DMS8). Nature of the test: Adenosine receptor TR-FRET binding assay (A3). The settings on record: inhibition of binding of 100 nM CA200645, CHO cell membranes. The essentials:
as §1

Here are results for two molecules from US20230293517A1, “ANTAGONIST COMPOUNDS” (AdoRx Therapeutics Limited, priority 2020, published 2023).

As a reminder, the Ki is a dissociation constant, usually derived from enzyme kinetics or from competition with a known ligand. Usually IC50 stands for the concentration needed to halve the response being measured.

Chain of human Adenosine A2b receptor (P29275 whole entry): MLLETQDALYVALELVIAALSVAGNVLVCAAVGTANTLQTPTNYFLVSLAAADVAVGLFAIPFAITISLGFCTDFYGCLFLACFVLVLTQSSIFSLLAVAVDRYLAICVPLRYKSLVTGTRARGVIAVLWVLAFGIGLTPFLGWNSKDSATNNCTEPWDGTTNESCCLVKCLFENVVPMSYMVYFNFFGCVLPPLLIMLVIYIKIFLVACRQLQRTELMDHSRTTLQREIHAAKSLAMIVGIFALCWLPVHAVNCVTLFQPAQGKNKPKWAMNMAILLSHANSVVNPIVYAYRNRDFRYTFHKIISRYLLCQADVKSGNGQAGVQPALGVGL
Chain of human Adenosine A3 receptor (P0DMS8 whole entry): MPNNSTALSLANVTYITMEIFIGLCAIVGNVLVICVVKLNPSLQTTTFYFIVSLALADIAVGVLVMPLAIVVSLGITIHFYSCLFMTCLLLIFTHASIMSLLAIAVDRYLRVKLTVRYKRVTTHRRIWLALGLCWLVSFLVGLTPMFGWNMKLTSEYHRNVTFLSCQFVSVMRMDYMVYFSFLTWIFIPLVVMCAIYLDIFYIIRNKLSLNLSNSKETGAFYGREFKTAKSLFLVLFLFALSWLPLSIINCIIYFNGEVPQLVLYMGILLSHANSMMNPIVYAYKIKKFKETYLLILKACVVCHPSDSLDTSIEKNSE
Chain of human Adenosine A1 receptor (P30542 whole entry): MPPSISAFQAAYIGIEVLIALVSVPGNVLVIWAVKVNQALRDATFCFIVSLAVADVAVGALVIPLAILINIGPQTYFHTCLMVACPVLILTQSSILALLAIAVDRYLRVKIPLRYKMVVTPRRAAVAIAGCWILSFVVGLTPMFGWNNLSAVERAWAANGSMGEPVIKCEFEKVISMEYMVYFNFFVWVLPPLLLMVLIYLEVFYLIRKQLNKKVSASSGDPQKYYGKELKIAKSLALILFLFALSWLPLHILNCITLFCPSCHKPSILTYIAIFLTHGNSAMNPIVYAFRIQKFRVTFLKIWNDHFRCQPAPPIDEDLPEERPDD
Chain of human Adenosine A2a receptor (P29274 whole entry): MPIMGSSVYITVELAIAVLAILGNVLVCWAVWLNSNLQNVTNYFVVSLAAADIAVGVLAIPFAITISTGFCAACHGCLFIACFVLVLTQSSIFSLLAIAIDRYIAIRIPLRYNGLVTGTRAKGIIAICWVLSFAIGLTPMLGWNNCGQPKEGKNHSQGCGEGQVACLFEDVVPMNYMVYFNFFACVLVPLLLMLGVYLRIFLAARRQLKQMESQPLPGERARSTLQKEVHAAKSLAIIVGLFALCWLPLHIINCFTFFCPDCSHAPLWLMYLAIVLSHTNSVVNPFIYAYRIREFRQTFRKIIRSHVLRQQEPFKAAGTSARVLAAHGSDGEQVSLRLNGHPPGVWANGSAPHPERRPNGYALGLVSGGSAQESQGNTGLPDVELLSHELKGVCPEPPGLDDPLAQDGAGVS

Take `Cc1cc(-c2sc(NC(=O)N3CC4(CCN(C)C4=O)C3)nc2-c2cccc(C#N)c2)cc(C)n1` [Example 6.92, N-[4-(3-Cyanophenyl)-5-(2,6-dimethyl-4-pyridyl)thiazol-2-yl]-6-methyl-5-oxo-2,6-diazaspiro[3.4]octane-2-carboxamide]: the Ki in test [1] came out at 0.39 nM; in test [3] it was 66 nM; in test [4] it was 2.6 nM; in test [6] it was 98 nM. For the same molecule, the figures for the IC50 (in test [2]; in the test on human PBMCs; in test [5]) were 30 nM, 1.2 nM and 11 nM, respectively.
As to `Cc1cc(-c2sc(NC(=O)N3CC[C@@H](C(C)(C)O)C3)nc2-c2cccc(C#N)c2)cc(C)n1` [Example 6.36, (3R)-N-[4-(3-Cyanophenyl)-5-(2,6-dimethyl-4-pyridyl)thiazol-2-yl]-3-(1-hydroxy-1-methyl-ethyl)pyrrolidine-1-carboxamide], the Ki in test [1] came to 0.87 nM; in test [3] it was 133 nM; in test [4], 4.2 nM; in test [6], 377 nM. Moreover, the results for the IC50 (in test [2]; in the test on human PBMCs; in test [5]) were 90 nM, 4.2 nM and 16 nM, respectively.
